Experimental data as given in patent publication US7714106B2, “Neuropeptides and their use for pest control” (University of Florida Research Foundation, Inc., priority 1999, dated 2010).
No end group written: not given here.

Test system: trypsin biosynthesis in the midgut of female Aedes aegypti
Assay: Trypsin biosynthesis in blood-fed female mosquitoes injected with peptide (whole mosquitos)
Assay type: in vivo
Details: whole blood-fed females, injected 0.25 μl, 10^−6 M peptide, midguts assayed 30 hours later
Source text: To find out if NPF I and II affect trypsin biosynthesis in the midgut of female Aedes aegypti, […] were removed and assayed for trypsin biosynthesis (Borovsky el al., 1990 “Mosquito Oostatic Factor: A Novel Decapeptide Modulating Trypsin-Like Enzyme Biosynthesis in the Midgut” FASEB J. 4:3015-3020; Borovsky et al. 1993 “Mass Spectrometry and Characterization of Aedes aegypti Trypsin Modulating Oostatic Factor (TMOF) and its Analog” Insect Biochem. Molec. Biol. 23:703-712). Each experiment was repeated 3 times (5 females per group) and the results are expressed as % inhibition of trypsin biosynthesis±S.E.M. (FIG. 1).

For “Ala-Pro-Ser-Leu-Arg-Leu-Arg-Phe-amide (APSLRLRF-NH2) [NPF II, amidated neuropeptide NPF II, native to the Colorado potato beetle]”, the “% inhibition of trypsin biosynthesis” value was 35%.

Test system: first instar Aedes aegypti larvae
Assay: Effect of NPF polypeptides on Aedes aegypti larvae (ingestion, mortality)
Assay type: in vivo
Details: microtiter plate, peptide 2 mg/ml to 0.04 mg/ml with Brewer's yeast, mortality at 24 hour intervals for 3 to 7 days, read-out: LC50 (mM) ± SEM
Source text: NPF polypeptides sharing sequence homology with NPF I and NPF II of the Colorado potato beetle (Leptinotarsa decemlineata) (Spittaels, et al. Insect Biochem. Mol. Biol., 26 (4):375-382, 1996) have been identified in the American cockroach (Periplaneta americana) (Veenstra and Lambrou, Biochem. Biophys. Res. Commun., 213 (2):519-524, 1995), mosquito (Aedes aegypti) (Stanek et al., Display Presentation, Entomological Society of America Annual Meeting, Montreal, Canada, Dec. 3-6, 2000), and fruit fly (Drosophila melanogaster), and their pesticidal activity was confirmed. Synthesized polypeptides corresponding to the native polypeptides of Colorado potato beetle (SEQ ID NO. 1), mosquito (SEQ ID NOs. 5 and 7), American cockroach (SEQ ID NOs. 9 and 11), and fruit fly (SEQ ID NOs. 13 and 15) were provided to first instar Aedes aegypti larvae for ingestion. Non-amidated versions of SEQ ID NOs. 5, 7, 9, 11, 13, and 15 (SEQ ID NOs. 6, 8, 10, 12, 14, and 16, respectively), as well as other functional equivalents (SEQ ID NOs. 17-24), were also provided for ingestion.
First instar Aedes aegypti larvae were assayed in a microtiter plate in 188 μl solution containing 160 μl of water, 10 μl of 2% Brewer's yeast, and NPF polypeptides of the subject invention at concentrations of 2 mg/ml to 0.04 mg/ml (Table 2). Mortality was determined at 24 hour intervals for 3 to 7 days. Controls were run with yeast solution lacking the NPF polypeptide.

First: ADRSPSLRLRF-NH2 [SEQ ID NO. 11, Ala-Asp-Arg-Ser-Pro-Ser-Leu-Arg-Leu-Arg-Phe-amide]
Second: ANRSPSLRLRF-NH2 [SEQ ID NO. 9, Ala-Asn-Arg-Ser-Pro-Ser-Leu-Arg-Leu-Arg-Phe-amide]
The LC50 of the first is 4.8-fold higher: 0.65 ± 0.03 mM for the first, 0.135 ± 0.06 mM for the second.

“APQLRLRF-NH2 [SEQ ID NO. 7, Ala-Pro-Gln-Leu-Arg-Leu-Arg-Phe-amide]” and “AQRSPSLRLRF-NH2 [SEQ ID NO. 15, Ala-Gln-Arg-Ser-Pro-Ser-Leu-Arg-Leu-Arg-Phe-amide]” are within 1.5-fold of each other in LC50: 0.8 ± 0.06 mM for the first, 1.03 ± 0.1 mM for the second.

First: ARGPQLRLRF-NH2 [SEQ ID NO. 1, Ala-Arg-Gly-Pro-Gln-Leu-Arg-Leu-Arg-Phe-amide]
Second: LRLRF-NH2 [SEQ ID NO. 21, Leu-Arg-Leu-Arg-Phe-amide]
The LC50 of the first is lower: 0.65 ± 0.04 mM for the first, over 2.8 mM for the second.

Compared with “PIRSPSLRLRF-NH2 [SEQ ID NO. 13, Pro-Ile-Arg-Ser-Pro-Ser-Leu-Arg-Leu-Arg-Phe-amide]”, “PSLRLRF-NH2 [SEQ ID NO. 19, Pro-Ser-Leu-Arg-Leu-Arg-Phe-amide]” is higher in LC50: 0.589 ± 0.04 mM for the first, over 2.25 mM for the second.

“RPPTRFRF-NH2 [SEQ ID NO. 5, Arg-Pro-Pro-Thr-Arg-Phe-Arg-Phe-amide]” and “RSPSLRLRF-NH2 [SEQ ID NO. 17, Arg-Ser-Pro-Ser-Leu-Arg-Leu-Arg-Phe-amide]” are within 1.5-fold of each other in LC50: 0.61 ± 0.018 mM for the first, 0.82 ± 0.07 mM for the second.
